Numbered stars: 1 amine (or outer) side, 2 acyl side, 3 side chain; on linkers, the order of the positions; unused ones are H or OH. Bridge positions count the residues as written; N and C are the ends. Peptide text beside a SMILES is read from it. * marks the point of attachment. C20 diacid = O=C(O)CCCCCCCCCCCCCCCCCCC(=O)*; γGlu = O=C(O)[C@H](CCC(=O)[*:2])N[*:1]
Key:
[1] = biological target: T1, human amylin 3(a) receptor (human calcitonin receptor + RAMP-3) in BHK570 cells (Homo sapiens, UniProt O60896+P30988); assay: ASSAY (II)a functional assay, human amylin receptor (CRE luciferase); assay type: cell-based; details: for EC50: human amylin receptor functional potency, assay (II), read-out: hAmylin-R funct. EC50
T1 construct: expressed in transfected cells
Method in brief: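 Functional agonism was measured by CRE-luciferase reporter luminescence in BHK cells bearing calcitonin receptor, or calcitonin receptor plus RAMP-3 as the amylin 3(a) receptor. Stimulation lasted 3 hours at 37° C.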

[2] = biological target: T2, human calcitonin (a) receptor in BHK570 cells (Homo sapiens, UniProt P30988); assay: ASSAY (II)a functional assay, human calcitonin receptor (CRE luciferase); assay type: cell-based; details: read-out: hCTR funct. EC50
T2 construct: expressed in transfected cells
T2 sequence (P30988 25-474): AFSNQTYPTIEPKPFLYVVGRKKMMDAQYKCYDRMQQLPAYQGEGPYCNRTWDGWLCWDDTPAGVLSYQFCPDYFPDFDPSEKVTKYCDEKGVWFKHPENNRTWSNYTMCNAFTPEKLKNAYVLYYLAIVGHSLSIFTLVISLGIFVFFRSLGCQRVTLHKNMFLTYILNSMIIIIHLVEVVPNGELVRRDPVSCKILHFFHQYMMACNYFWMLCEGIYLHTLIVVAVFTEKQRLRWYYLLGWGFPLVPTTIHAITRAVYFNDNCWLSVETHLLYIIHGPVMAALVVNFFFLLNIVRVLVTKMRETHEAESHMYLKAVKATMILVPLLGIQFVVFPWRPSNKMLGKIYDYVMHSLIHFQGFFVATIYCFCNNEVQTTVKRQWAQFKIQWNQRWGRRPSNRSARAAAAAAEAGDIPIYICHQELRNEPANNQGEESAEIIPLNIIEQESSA
From the text: 1. Luciferase Assay Outline
Activation of calcitonin and amylin (coexpression of calcitonin receptor and receptor activity modifying proteins (RAMP)) receptors lead to increased intracellular concentrations of cAMP. Consequently, transcription is activated by promoters containing multiple copies of the cAMP response element (CRE). It is thus possible to measure amylin activity by the use of a CRE luciferase reporter gene introduced into BHK cells also expressing calcitonin or amylin receptors.
2. Construction of Calcitonin (a)- and Amylin 3(a)-Receptor/CRE-Luc Cell Line.
The cell line was further transfected with RAMP-3, using standard methods. This turns the calcitonin receptor into an amylin 3(a) receptor. Methotrexate, Neomycin, and Hygromycin are selection markers for luciferase, the calcitonin receptor, and RAMP-3, respectively.
To perform activity assays, BHK calcitonin (a) receptor- or amylin 3(a)-receptor/CRE-luc cells were seeded in white 96 well culture plates at a density of about 20.000 cells/well. […] After incubation overnight at 37° C. and 5% CO2, the growth medium was replaced by 50 μl/well assay medium (DMEM (without phenol red), Glutamax™, 10% FBS, and 10 mM Hepes, pH 7.4). Further, 50 μl/well of standard or sample in assay buffer were added. After 3 hours incubation at 37° C. and 5% CO2, the assay medium with standard or sample were removed and replaced by 100 μl/well PBS. Further, 100 μl/well LucLite™ was added. The plates were sealed and incubated at room temperature for 30 minutes. Finally, luminescence was measured on a TopCounter (Packard) in SPC (single photon counting) mode.

[3] = biological target: T3, human amylin receptor (membranes from Amylin 3(a)/CRE-luc cells) (Homo sapiens, UniProt O60896+P30988); assay: ASSAY (V) binding to the human amylin receptor (SPA, 125I-rat amylin); details: for IC50: Table 4, read-out: hAmylin-R bind IC50;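 as to all read-outs here: competition binding of cell membranes (35 ng/µL) mixed with SPA beads in 384-well plates at 40 µL total volume, read by scintillation counting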
T3 construct: expressed in transfected cells
T3 sequence (P30988 25-474): T2 sequence (P30988 25-474)
T3 sequence (O60896 24-148 partner): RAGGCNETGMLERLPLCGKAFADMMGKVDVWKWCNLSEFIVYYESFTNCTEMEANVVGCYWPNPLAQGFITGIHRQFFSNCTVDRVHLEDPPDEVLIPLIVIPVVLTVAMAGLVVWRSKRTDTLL

[4] = biological target: T4, rat amylin receptor (rat calcitonin receptor + rat RAMP 3) (Rattus norvegicus, UniProt P32214+Q9JJ73); assay: ASSAY (VI) binding to the rat amylin receptor; details: for IC50: binding to rat amylin receptor, read-out: rAmylin-R bind IC50
T4 construct: expressed in transfected cells; host or cells: BHK tk'ts 13 (transient, FuGENE 6), membranes
T4 sequence (P32214 25-479 isoform P32214-2 limits assumed): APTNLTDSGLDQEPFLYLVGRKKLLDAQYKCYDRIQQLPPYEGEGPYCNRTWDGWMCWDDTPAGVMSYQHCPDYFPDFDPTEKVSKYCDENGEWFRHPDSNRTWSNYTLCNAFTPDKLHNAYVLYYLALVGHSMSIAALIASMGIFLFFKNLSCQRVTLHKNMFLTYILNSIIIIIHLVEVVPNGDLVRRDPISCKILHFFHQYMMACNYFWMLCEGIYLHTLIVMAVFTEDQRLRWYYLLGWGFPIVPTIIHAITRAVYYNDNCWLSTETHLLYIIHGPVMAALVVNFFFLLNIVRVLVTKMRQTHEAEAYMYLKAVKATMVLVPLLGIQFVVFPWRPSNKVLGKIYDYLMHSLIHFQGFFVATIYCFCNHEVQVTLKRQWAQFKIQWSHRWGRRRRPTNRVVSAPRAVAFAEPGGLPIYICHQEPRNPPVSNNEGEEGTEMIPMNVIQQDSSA
T4 sequence (Q9JJ73 23-147 partner): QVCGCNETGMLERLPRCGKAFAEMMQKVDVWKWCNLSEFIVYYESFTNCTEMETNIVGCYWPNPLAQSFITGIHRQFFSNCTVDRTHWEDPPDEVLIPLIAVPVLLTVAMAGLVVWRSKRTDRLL
Method in brief: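 The cell-membrane assay assessed binding at the rat amylin receptor. BHK tk′ts 13 cells were transfected transiently with rat calcitonin receptor, with FuGENE® 6 (Roche) as the transfection reagent, used per the manufacturer's recommendations. Approximately 48 hours after transfection the cells were harvested, and membranes were prepared for measuring binding.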

[5] = biological target: T5, human calcitonin receptor (Homo sapiens, UniProt P30988); assay: ASSAY (VII) binding to the human calcitonin receptor (SPA, 125I-Calcitonin); details: read-out: hCTR bind IC50;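 also: cell membranes (35 ng/µL) combined with SPA beads in 40 µL of pH 7.4 Hepes buffer, 384-well format, signal counted on a TopCounter instrument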
T5 construct: expressed in transfected cells
T5 sequence (P30988 25-474): T2 sequence (P30988 25-474)

rat calcitonin receptor = biological target: T6, rat calcitonin receptor (Rattus norvegicus, UniProt P32214); assay: ASSAY (VIII) binding to the rat calcitonin receptor; details: Table 7, read-out: rCTR bind IC50
T6 construct: expressed in transfected cells; host or cells: BHK tk'ts 13 (transient, FuGENE 6), membranes
T6 sequence (P32214 25-479 isoform P32214-2 limits assumed): T4 sequence (P32214 25-479 isoform P32214-2 limits assumed)
Method in brief: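 BHK tk′ts 13 cells, transient rat calcitonin receptor transfection; DMEM + 10% FBS; harvest ~48 h post-transfection; membrane prep.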

[6] = hCTR funct. EC50 over hAmylin-R funct. EC50
[7] = human functional selectivity: hCTR funct. EC50 / hAmylin-R funct. EC50
[8] = Table 5, selectivity, hCTR bind IC50 / hAmylin-R bind IC50
[9] = Table 5a, selectivity, hCTR bind IC50 / hAmylin-R bind IC50
[10] = Table 5b, selectivity, hCTR bind IC50 / hAmylin-R bind IC50
[11] = Table 7, human binding selectivity, included for comparison
[12] = Table 7a (preferred compounds), human binding selectivity, included for comparison
[13] = ratio of human calcitonin receptor binding IC50 to human amylin receptor binding IC50
[14] = Table 7, rat binding selectivity, rCTR IC50 / rAmylin-R IC50
[15] = Table 7a (preferred compounds), rat binding selectivity, rCTR IC50 / rAmylin-R IC50
[16] = ratio of rCTR bind IC50 to rAmylin-R bind IC50

## CC[C@H](C)[C@H](NC(=O)[C@@H]1CCCN1C(=O)CNC(=O)[C@H](Cc1ccccc1)NC(=O)[C@H](CC(N)=O)NC(=O)[C@@H]1CCCN1C(=O)[C@H](CO)NC(=O)[C@H](CO)NC(=O)[C@H](Cc1c[nH]cn1)NC(=O)[C@H](CCCNC(=N)N)NC(=O)[C@H](CC(C)C)NC(=O)[C@H](Cc1ccccc1)NC(=O)[C@H](CCC(=O)O)NC(=O)[C@H](C)NC(=O)[C@H](CC(C)C)NC(=O)[C@H](CCCNC(=N)N)NC(=O)[C@H](CCC(N)=O)NC(=O)[C@@H](NC(=O)[C@H](C)NC(=O)[C@@H]1CSSC[C@H](NC(=O)[C@H](CCCCN)NC(=O)CC[C@H](NC(=O)CCCCCCCCCCCCCCCCCCC(=O)O)C(=O)O)C(=O)N[C@@H](CC(N)=O)C(=O)N[C@@H]([C@@H](C)O)C(=O)N[C@@H](C)C(=O)N[C@@H]([C@@H](C)O)C(=O)N1)[C@@H](C)O)C(=O)N[C@@H](CC(C)C)C(=O)N1CCC[C@H]1C(=O)N1CCC[C@H]1C(=O)N[C@H](C(=O)N[C@@H](CC(N)=O)C(=O)N[C@H](C(=O)NCC(=O)N[C@@H](CO)C(=O)N[C@@H](CC(N)=O)C(=O)N[C@H](C(=O)N[C@@H](Cc1ccc(O)cc1)C(N)=O)[C@@H](C)O)C(C)C)[C@@H](C)O [Example 6] ({C20 diacid-γGlu}-KCNTATCATQRLAEFLRHSSPNFGPILPPTNVGSNTY-NH2; disulfide 2-7)
[1]; [6]
  Ratio hCT/hAmylin funct.: 5.7
[1]
  EC50: 0.128 nM
[1]; [7]
  Ratio hCT/hAmylin funct.: 5.7
[2]
  EC50: 0.729 nM
[3]
  IC50: 0.996 nM
[3]; [8]
  Ratio hCT/hAmylin binding: 20.0
[3]; [9]
  Ratio hCT/hAmylin binding: 20.0
[3]; [10]
  Ratio hCT/hAmylin binding: 20.0
[3]; Table 5c, selectivity, hCTR bind IC50 / hAmylin-R bind IC50
  Ratio hCT/hAmylin binding: 20.0
[3]; [11]
  Ratio hCT/hAmylin binding: 20.0
[3]; [12]
  Ratio hCT/hAmylin binding: 20.0
[3]; [13]
  Ratio hCT/hAmylin binding: 20.0
[4]; Table 7
  IC50: 2.37 nM
[4]; [14]
  Ratio rCT/rAmylin binding: 21.7
[4]; [15]
  Ratio rCT/rAmylin binding: 21.7
[4]; [16]
  Ratio rCT/rAmylin binding: 21.7
[5]
  IC50: 19.9 nM
Rat calcitonin receptor
  IC50: 51.6 nM

## CC(C)C[C@H](NC(=O)[C@H](CCCNC(=N)N)NC(=O)[C@H](CCC(N)=O)NC(=O)[C@@H](NC(=O)[C@H](C)NC(=O)[C@@H]1CSSC[C@H](NC(=O)[C@H](CCCCN)NC(=O)CC[C@H](NC(=O)CCCCCCCCCCCCCCCCCCC(=O)O)C(=O)O)C(=O)N[C@@H](CC(N)=O)C(=O)N[C@@H]([C@@H](C)O)C(=O)N[C@@H](C)C(=O)N[C@@H]([C@@H](C)O)C(=O)N1)[C@@H](C)O)C(=O)N[C@@H](C)C(=O)N[C@@H](CCC(=O)O)C(=O)N[C@@H](Cc1ccccc1)C(=O)N[C@@H](CC(C)C)C(=O)N[C@@H](CCCNC(=N)N)C(=O)N[C@@H](Cc1c[nH]cn1)C(=O)N[C@@H](CO)C(=O)N[C@@H](CO)C(=O)N1CCC[C@H]1C(=O)N[C@@H](CC(N)=O)C(=O)N[C@@H](Cc1ccccc1)C(=O)NCC(=O)N[C@@H](C)C(=O)N1CCC[C@H]1C(=O)N[C@@H](CC(C)C)C(=O)N[C@@H](CO)C(=O)N[C@@H](CO)C(=O)N[C@H](C(=O)N[C@@H](CC(N)=O)C(=O)N[C@H](C(=O)NCC(=O)N[C@@H](CO)C(=O)N[C@@H](CC(N)=O)C(=O)N[C@H](C(=O)N[C@@H](Cc1ccc(O)cc1)C(N)=O)[C@@H](C)O)C(C)C)[C@@H](C)O [Example 7] ({C20 diacid-γGlu}-KCNTATCATQRLAEFLRHSSPNFGAPLSSTNVGSNTY-NH2; disulfide 2-7)
[1]; [6]
  Ratio hCT/hAmylin funct.: 4.5
[1]
  EC50: 0.255 nM
[1]; [7]
  Ratio hCT/hAmylin funct.: 4.5
[2]
  EC50: 1.16 nM
[3]
  IC50: 0.674 nM
[3]; [8]
  Ratio hCT/hAmylin binding: 16.5
[3]; [9]
  Ratio hCT/hAmylin binding: 16.5
[3]; [10]
  Ratio hCT/hAmylin binding: 16.5
[3]; [11]
  Ratio hCT/hAmylin binding: 16.5
[3]; [12]
  Ratio hCT/hAmylin binding: 16.5
[3]; [13]
  Ratio hCT/hAmylin binding: 16.5
[4]; Table 7
  IC50: 1.12 nM
[4]; [14]
  Ratio rCT/rAmylin binding: 42.0
[4]; [15]
  Ratio rCT/rAmylin binding: 42.0
[4]; [16]
  Ratio rCT/rAmylin binding: 42.0
[5]
  IC50: 11.1 nM
Rat calcitonin receptor
  IC50: 47.2 nM

— patent US9023789B2, “Amylin analogs and pharmaceutical compositions thereof” (Novo Nordisk A/S, priority 2012, dated 2015)
